Data reported in PubChem BioAssay AID192 (DTP/NCI, 2004).
Several values for one entry are separate records, joined by “and”; a condition that tells them apart may be missing. Equal entries are not always repeated. Toxic doses and inconclusive results are not listed. The calls were made as follows: active = survival T/C of 150% or more; inactive = T/C below 125% in these data.

System: BDF1 mice, B16 melanoma ip, median survival T/C
Test: NCI In Vivo Anticancer Drug Screen. Data for tumor model B16 Melanoma (intraperitoneal) in B6D2F1 (BDF1) mice
Details: endpoint: median survival time, higher = longer survival
Procedure, shortened: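 Tumor-bearing mice received test compound or vehicle. Survival or tumor size was then measured in both groups. The treated-group figure was divided by the control-group figure.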

[1] = dose: 12.5 mg/kg/injection, schedule: Q01DX009 (ip), vehicle: saline
[2] = dose: 12.5 mg/kg/injection, schedule: Q01DX009 (ip), vehicle: saline with Tween-80
[3] = dose: 25.0 mg/kg/injection, schedule: Q01DX009 (ip), vehicle: saline with Tween-80
[4] = dose: 100.0 mg/kg/injection, schedule: Q04DX003 (ip), vehicle: saline
[5] = dose: 50.0 mg/kg/injection, schedule: Q04DX003 (ip), vehicle: saline
[6] = dose: 6.25 mg/kg/injection, schedule: Q01DX009 (ip), vehicle: saline with Tween-80
[7] = dose: 50.0 mg/kg/injection, schedule: Q01DX009 (ip), vehicle: saline with Tween-80
[8] = dose: 100.0 mg/kg/injection, schedule: Q01DX009 (ip), vehicle: saline with Tween-80
[9] = dose: 6.25 mg/kg/injection, schedule: Q01DX009 (ip), vehicle: saline
[10] = dose: 25.0 mg/kg/injection, schedule: Q01DX009 (ip), vehicle: saline
[11] = dose: 25.0 mg/kg/injection, schedule: Q01DX009 (ip), vehicle: Klucel (hydroxypropylcellulose) (HPC)
[12] = dose: 50.0 mg/kg/injection, schedule: Q01DX009 (ip), vehicle: Klucel (hydroxypropylcellulose) (HPC)
[13] = dose: 100.0 mg/kg/injection, schedule: Q01DX009 (ip), vehicle: Klucel (hydroxypropylcellulose) (HPC)
[14] = dose: 200.0 mg/kg/injection, schedule: Q01DX009 (ip), vehicle: Klucel (hydroxypropylcellulose) (HPC)
[15] = dose: 200.0 mg/kg/injection, schedule: Q01DX009 (ip), vehicle: saline with Tween-80

Measured: T/C

Nc1ncnc2c1ncn2C1OC(COP(=O)(O)O)C(O)C1O (centres undefined)
inactive: [1] 124 % of control | dose: 12.5 mg/kg/injection, schedule: Q01DX009 (ip), vehicle: water 112 % of control | dose: 20.0 mg/kg/injection, schedule: Q01DX009 (ip), vehicle: water 113 % of control | dose: 25.0 mg/kg/injection, schedule: Q01DX009 (ip), vehicle: water 108 % of control | dose: 40.0 mg/kg/injection, schedule: Q01DX009 (ip), vehicle: water 110 % of control | dose: 50.0 mg/kg/injection, schedule: Q01DX009 (ip), vehicle: saline 116 % of control | dose: 50.0 mg/kg/injection, schedule: Q01DX009 (ip), vehicle: water 108 % of control | dose: 80.0 mg/kg/injection, schedule: Q01DX009 (ip), vehicle: water 104 % of control | dose: 100.0 mg/kg/injection, schedule: Q01DX009 (ip), vehicle: saline 121 % of control | dose: 100.0 mg/kg/injection, schedule: Q01DX009 (ip), vehicle: water 118 % of control | dose: 160.0 mg/kg/injection, schedule: Q01DX009 (ip), vehicle: water 113 % of control | dose: 200.0 mg/kg/injection, schedule: Q01DX009 (ip), vehicle: water 118 % of control | dose: 320.0 mg/kg/injection, schedule: Q01DX009 (ip), vehicle: water 124 % of control | dose: 400.0 mg/kg/injection, schedule: Q01DX009 (ip), vehicle: water 117 % of control

CC(CN(C)C)CN1c2ccccc2Sc2ccccc21 (centres undefined)
inactive: [2] 104 % of control | [3] 101 % of control

C[n+]1cccc(O)c1
inactive: [4] 95 % of control | dose: 200.0 mg/kg/injection, schedule: Q04DX003 (ip), vehicle: saline 97 % of control | dose: 400.0 mg/kg/injection, schedule: Q04DX003 (ip), vehicle: saline 102 % of control

CC[n+]1c(C)sc2cc3c(cc21)OCO3
inactive: dose: 25.0 mg/kg/injection, schedule: Q01DX009 (ip), vehicle: carboxymethylcellulose (CMC) 108 % of control | dose: 50.0 mg/kg/injection, schedule: Q01DX009 (ip), vehicle: carboxymethylcellulose (CMC) 106 % of control

COc1cc2ccc(CCNCc3ccccc3)cc2cc1OC
inactive: [5] 92 % of control | [4] 94 % of control

Nc1nc(SCc2ccccc2F)c2ncn(C3OC(CO)C(O)C3O)c2n1 (centres undefined)
inactive: dose: 3.12 mg/kg/injection, schedule: Q01DX009 (ip), vehicle: saline with Tween-80 105 % of control | [6] 116 % of control | [2] 122 % of control | [3] 95 % of control

O=C(CC(=O)C(F)(F)C(F)(F)C(F)(F)F)c1csc2ccccc12
inactive: [3] 97 % of control | [7] 100 % of control | [8] 92 % of control

CC(O)c1ccc[n+](CCc2cn(C)c3ccccc23)c1 (centres undefined)
inactive: [9] 107 % of control | [1] 113 % of control | [10] 104 % of control

C1CCC2OCCOCCOC3CCCCC3OCCOCCOC2C1 (centres undefined)
inactive: dose: 3.12 mg/kg/injection, schedule: Q01DX009 (ip), vehicle: Klucel (hydroxypropylcellulose) (HPC) 91 % of control and 95 % of control | dose: 6.25 mg/kg/injection, schedule: Q01DX009 (ip), vehicle: Klucel (hydroxypropylcellulose) (HPC) 95 % of control and 107 % of control | dose: 12.5 mg/kg/injection, schedule: Q01DX009 (ip), vehicle: Klucel (hydroxypropylcellulose) (HPC) 106 % of control and 111 % of control | [11] 108 % of control and 121 % of control | [12] 98 % of control

O=C(O)c1ccc2c3c(ccc(C(=O)O)c13)CC2
inactive: [11] 92 % of control | [12] 91 % of control

COc1ccc(NC(=O)COc2ccc(Cl)cc2)cc1
inactive: [13] 90 % of control | [14] 100 % of control | dose: 400.0 mg/kg/injection, schedule: Q01DX009 (ip), vehicle: Klucel (hydroxypropylcellulose) (HPC) 86 % of control

CCCCNC(C)(C)C(SSC(c1ccc(Cl)cc1)C(C)(C)NCCCC)c1ccc(Cl)cc1 (centres undefined)
inactive: [9] 109 % of control | [1] 97 % of control | [10] 88 % of control

CN1CCC(C=C2c3ccccc3CCc3ccccc32)C1 (centres undefined)
inactive: dose: 1.56 mg/kg/injection, schedule: Q01DX009 (ip), vehicle: saline 102 % of control | dose: 3.12 mg/kg/injection, schedule: Q01DX009 (ip), vehicle: saline 100 % of control | [10] 102 % of control

CC(N)CCc1ccccc1 (centres undefined)
inactive: dose: 12.5 mg/kg/injection, schedule: Q04DX003 (ip), vehicle: saline 100 % of control | dose: 25.0 mg/kg/injection, schedule: Q04DX003 (ip), vehicle: saline 108 % of control | [5] 111 % of control

CCCCCCCCCCCCCCNC(=O)CCl
inactive: [13] 113 % of control | [14] 106 % of control

COc1ccc(N=C(c2ccccc2)c2ccccc2)cc1
inactive: dose: 100.0 mg/kg/injection, schedule: Q04DX003 (ip), vehicle: saline with Tween-80 95 % of control | dose: 200.0 mg/kg/injection, schedule: Q04DX003 (ip), vehicle: saline with Tween-80 86 % of control | dose: 400.0 mg/kg/injection, schedule: Q04DX003 (ip), vehicle: saline with Tween-80 90 % of control

CC(=O)OC1CCC2(C)C(CCC3C2C(=O)C(OC(C)=O)C2(C)C3CC3OC4(CCC(C)CO4)C(C)C32)C1 (centres undefined)
inactive: dose: 1.56 mg/kg/injection, schedule: Q01DX009 (ip), vehicle: saline with Tween-80 98 % of control | dose: 3.13 mg/kg/injection, schedule: Q01DX009 (ip), vehicle: saline with Tween-80 108 % of control | [6] 91 % of control and 93 % of control | [3] 89 % of control

Cc1cc(Cl)ccc1OCC(=O)Nc1nc(N)nc(N)n1
inactive: dose: 12.5 mg/kg/injection, schedule: Q04DX009 (ip), vehicle: Klucel (hydroxypropylcellulose) (HPC) 88 % of control | dose: 25.0 mg/kg/injection, schedule: Q04DX009 (ip), vehicle: Klucel (hydroxypropylcellulose) (HPC) 92 % of control | dose: 50.0 mg/kg/injection, schedule: Q04DX009 (ip), vehicle: Klucel (hydroxypropylcellulose) (HPC) 87 % of control

CCOC(=O)N1Cc2cc3cc(Cl)ccc3nc2C1
inactive: dose: 8.0 mg/kg/injection, schedule: Q01DX009 (ip), vehicle: saline with Tween-80 103 % of control | dose: 16.0 mg/kg/injection, schedule: Q01DX009 (ip), vehicle: saline with Tween-80 95 % of control | dose: 32.0 mg/kg/injection, schedule: Q01DX009 (ip), vehicle: saline with Tween-80 93 % of control | dose: 64.0 mg/kg/injection, schedule: Q01DX009 (ip), vehicle: saline with Tween-80 112 % of control

O=S(=O)(Nc1ccc(O)cc1)c1ccccc1
inactive: [8] 97 % of control | [15] 93 % of control | dose: 400.0 mg/kg/injection, schedule: Q01DX009 (ip), vehicle: saline with Tween-80 90 % of control

C=C(C)C12CC(C)C34OC5(CCCCCCCC(C)C6C(C)C(OC(=O)c7ccccc7)C(O)(C(O)C7(COC(=O)CCCCCCCCCCCCCCC)OC7C3C1O5)C64)O2 (centres undefined)
inactive: dose: 1.5 micrograms/kg/injection, schedule: Q01DX009 (ip), vehicle: saline 107 % of control | dose: 1.9 micrograms/kg/injection, schedule: Q01DX009 (ip), vehicle: Klucel (hydroxypropylcellulose) (HPC) 102 % of control | dose: 3.1 micrograms/kg/injection, schedule: Q01DX009 (ip), vehicle: saline 100 % of control | dose: 3.8 micrograms/kg/injection, schedule: Q01DX009 (ip), vehicle: Klucel (hydroxypropylcellulose) (HPC) 88 % of control | dose: 6.2 micrograms/kg/injection, schedule: Q01DX009 (ip), vehicle: saline 104 % of control | dose: 7.5 micrograms/kg/injection, schedule: Q01DX009 (ip), vehicle: Klucel (hydroxypropylcellulose) (HPC) 98 % of control | dose: 12.5 micrograms/kg/injection, schedule: Q01DX009 (ip), vehicle: saline 95 % of control | dose: 15.0 micrograms/kg/injection, schedule: Q01DX009 (ip), vehicle: Klucel (hydroxypropylcellulose) (HPC) 87 % of control | dose: 25.0 micrograms/kg/injection, schedule: Q01DX009 (ip), vehicle: saline 102 % of control | dose: 50.0 micrograms/kg/injection, schedule: Q01DX009 (ip), vehicle: saline 96 % of control

Cc1cc([N+](=O)[O-])c(Cl)cc1NS(=O)(=O)c1ccccc1
inactive: [3] 95 % of control | [7] 93 % of control | [8] 90 % of control

O=c1[nH]cc(B(O)O)c(=O)[nH]1
inactive: dose: 200.0 mg/kg/injection, schedule: Q01DX009 (ip), vehicle: saline 118 % of control

CCCN(C)/N=N/c1nc[nH]c1C(N)=O
inactive: [7] 112 % of control

NC(=O)N/N=C1\CC2C=CCC12 (centres undefined)
inactive: [7] 105 % of control | [8] 97 % of control | [15] 101 % of control
